# Results from patent publication US20250262167A1, “COMPOUNDS, TARGETS AND PATHWAYS FOR MACROPHAGE MODULATION” (Massachusetts Institute of Technology, priority 2020, published 2025).
# Where two headings read alike, the source gives them in different places.
# What was measured:
# [1] = tested on: human primary macrophages
# Description: Total protein lysates were isolated from either mouse ImKCs with or without DPI treatment for 6 and 12 hrs or human primary macrophages with or without DPI treatment for 12 hrs at the indicated concentrations. Equal amounts of total proteins from whole-cell lysates were subjected to Western blotting analysis. β-actin was used as a loading control. Shown are representative data of two independent experiments. […] P values were calculated by student t-test. * P<0.05, ** P<0.01. n.s. not significant.
# Proteins were extracted from cells with RIPA buffer. Protein concentration was quantified by BCA Protein Assay Kit (Pierce Biotechnology). Samples containing 20 μg total protein were resolved on a 10% SDS-PAGE gel and electro-transferred onto a PVDF membrane (Millipore Corporation). The membrane was blocked in 5% (w/v) fat-free milk in PBST (PBS containing 0.1% Tween-20). […] The blot was washed twice in PBST and then incubated with anti-Rabbit HRP-conjugated secondary antibody (Cell Signaling Technology, 1:2000) in 5% fat-free milk. The membrane was washed twice in PBST and subjected to protein detection by ECL Plus Western Blotting Detection System (GE Healthcare) before being exposed to a Kodak BioMax XAR film.
# [2] = tested on: β-arrestin2; assay: β-arrestin2 translocation assay (TIRF microscope); assay type: cell-based, mouse; conditions: 10 min, ImKCs and BMDMs; DPI 50 nM, S1P 3 mM
# Description: (§1) FIGS. 21A-21I show DPI stimulates glycolysis through GPR3 and β-arrestin2. FIGS. 21A-21B show DPI-stimulated glycolysis is independent of the NOX activity. […] The mean fluorescence intensity (MFI) of 2-NBDG in cells was measured by flow cytometry and normalized to DMSO controls of wildtype BMDMs. Data are presented as the mean±sd (n=3). […] ImKCs were transfected with siRNA specific for Gpr3 or a scramble siRNA as control. […] Data are presented as the mean±sd (n=4). […] Data are presented as the mean±sd (n=12). […] Abbr2^−/− ImKC were constructed by CRISPR-Cas9-mediated gene editing. […] Data are presented as the mean±sd (n=4). […] ImKCs were transfected with Abbr2-GFP fusion gene and stimulated with DMSO, DPI (50 nM), or S1P (3 mM). The GFP signal was captured with a TIRF microscope at indicated time points. Shown are representative data of GFP signal at 0 min and 10 min, and merged signal from three independent experiments.
# Specific parameters for glycolytic capacity and glycolytic reserve were calculated and summarized based on two independent experiments. […] The GFP signal was captured with a TIRF microscope at indicated time points. […]
# BMDMs or ImKCs were cotransfected with plasmids encoding FLAG-GPR3-GFP or β-arrestin2-RFP. […] The fluorescent signals of membrane-bound receptor or β-arrestin2 were collected as live images using a total internal reflection fluorescence (TIRF) microscope (Olympus). […]
# [3] = tested on: human Kupffer cells from NAFLD patients; conditions: 500 nM, ex vivo, 24 hours
# Description: CD14^+ KCs were sorted from single cell suspension of NAFLD human liver biopsies (n=2) and treated with DMSO or DPI (500 nM) for 24 hrs, followed by RNAseq to quantify gene expression.
# Human liver biopsies were obtained from livers procured from deceased donors deemed unacceptable for liver transplantation. Samples were collected with appropriate institutional ethics approval from The First Affiliated Hospital of Jilin University. All experiments were performed in accordance with the relevant guidelines and regulations. In addition, written informed consent was obtained from each subject. During organ retrieval, donor liver grafts were perfused in situ with cold (HTK) solution (Methapharm) to thoroughly flush out circulating cells, leaving only tissue resident cells that are then used to prepare a single-cell suspension to isolate immune cells. The unused liver caudate lobe post liver transplantation was collected and flushed with HBS+EGTA at 4° C. to remove any non-liver resident cells. Single-cell isolation from the resected caudate lobe was performed with a modified two-step collagenase procedure (MacFarland et al. 2017 ACnano). Single cell suspension was stained with anti-CD45 to sort all immune cells for scRNAseq or anti-CD14 to sort KCs for in vitro treatment by flow cytometry (BD Aria).
# RNAs were extracted with RNeasy MinElute Kit (Qiagen), converted into cDNA and sequenced using Next-Generation Sequencing (Illumina). RNA-seq data were aligned to the human genome (version hg19) and raw counts of each genes of each sample were calculated with bowtie2 2.2.3 (Langmead et al. 2009) and RSEM 1.2.15 (Li et al. 2011). Differential expression analysis was performed using the program edgeR at P<0.05 with a two-fold change (Robinson et al. 2010). The gene expression level across different samples was normalized and quantified using the function of cpm. DEGs were annotated using online functional enrichment analysis tool DAVID (Huang et al. 2007). […]
# [4] = KC-specific Pkm−/− mice
# Description: FIGS. 24G-24H show DPI's effect on KC-specific Pkm^−/− mice fed with HFD. Male KC-specific Pkm^−/− mice at the age of 5 weeks were fed with HFD for a total of 8 weeks. Three weeks after HFD, half of the mice were given DPI in vehicle (2 mg/kg) and the other half were given vehicle every 5 days for a total of 6 doses. Body weights were monitored weekly (FIG. 24G). Data are presented as the mean±sd from two independent experiments with 6 mice per group. Comparison of H&E staining of liver sections after 8 weeks on HFD. Shown are representative H&E staining from one mouse per group. Arrows in FIG. 24F and FIG. 24H point to lipid droplets. Scale bar: 100 μm. P values were calculated by student t-test. * P<0.05, ** P<0.01, *** P<0.001, **** P<0.0001.
# FIGS. 34A-34C show effect of DPI on Kupffer cell-specific Pkm^−/− mice on HFD. […] KC-specific Pkm^−/− mice were given HFD for a total of 8 weeks. Three weeks after HFD, half of the mice were given DPI in vehicle (2 mg/kg) and the other half were given vehicle every 5 days for a total of 6 doses. At 7 weeks plus 3 days, mice were starved overnight (12˜16 hrs) with only water. Glucose (1 mg/kg) was injected intraperitoneally and blood glucose levels were monitored at the indicated time. […] Sera from mice were collected at the end of HFD feeding and activities of AST and ALT were measured by colorimetric assay kits (Sigma). Shown are representative data from two independent experiments with 5˜6 mice per group. P values were calculated by student t-test. n.s. not significant. * P<0.05.
# KC-specific Pkm^−/− mice were fed with HFD for 8 weeks starting at 5 weeks of age. Three weeks after HFD, half of the mice were given vehicle and the other half was given DPI (2 mg/kg) i.p. every 5 days.
# [5] = not given; remark: listed apart in the source
# [6] = tested on: PKM2; assay: PKM enzymatic activity (colorimetric kit) in treated ImKCs; assay type: cell-based, mouse; conditions: parental ImKCs, 50 nM, β-arrestin2-dependent
# Description: Data are presented as the mean±sd (n=4). […] Data are presented as the mean±sd (n=6).
# FIGS. 29A-29B show comparison of DPI's effect on glycolysis in wild-type and Pkm^−/− BMDMs. […] FIGS. 29C-29D show activation of PKM2 and GAPDH enzymatic activity by DPI is inhibited by ERK1/2 inhibitor. ImKCs were treated with DMSO or DPI alone (500 nM) or DPI plus ERK1/2 inhibitor (SCH772984, […]) for 6 hrs and the enzymatic activities of PKM2 (c) and GAPDH (d) were measured by colorimetric assay kits (Biovision). Data are presented as the mean±sd (n=6).
# The enzymatic activities of PKM and GAPDH were measured using the pyruvate kinase activity assay kit (Biovision, #K709) and GAPDH activity assay kit (Biovision, #K680) according to the manufacturer's protocols, respectively.
# [7] = tested on: bone marrow derived macrophages (BMDMs); assay: Seahorse ECAR (glycolysis) in BMDMs; assay type: cell-based, mouse; conditions: Pkm−/− BMDMs, 50 nM
# Description: FIGS. 21A-21I show DPI stimulates glycolysis through GPR3 and β-arrestin2. FIGS. 21A-21B show DPI-stimulated glycolysis is independent of the NOX activity. […] The mean fluorescence intensity (MFI) of 2-NBDG in cells was measured by flow cytometry and normalized to DMSO controls of wildtype BMDMs. Data are presented as the mean±sd (n=3). […] ImKCs were transfected with siRNA specific for Gpr3 or a scramble siRNA as control. […] Data are presented as the mean±sd (n=4). […] Data are presented as the mean±sd (n=12). […] Abbr2^−/− ImKC were constructed by CRISPR-Cas9-mediated gene editing. […] Data are presented as the mean±sd (n=4). […]
# Specific parameters for glycolytic capacity and glycolytic reserve were calculated and summarized based on two independent experiments. […]
# FIGS. 29A-29B show comparison of DPI's effect on glycolysis in wild-type and Pkm^−/− BMDMs. […] ImKCs were treated with DMSO or DPI alone (500 nM) or DPI plus ERK1/2 inhibitor (SCH772984, […]) for 6 hrs and the enzymatic activities of PKM2 (c) and GAPDH (d) were measured by colorimetric assay kits (Biovision). […]
# OCR and ECAR were measured in isolated tissues or cultured ImKCs using the Seahorse XFe Extracellular Flux Analyzer (Agilent). […] Glucose levels were determined using a glucose (GO) assay kit (Sigma). […] Lactate levels were determined using a lactate assay kit (Eton Bioscience). […]
# [8] = tested on: ImKCs; conditions: 6 hours, dose-dependent
# Description: ImKCs were treated with DPI for 6 hrs and select metabolites in the glycolytic pathway and TCA cycle were quantified by LC-MS. Data are presented as the mean±sd (n=4). P values were calculated by student t-test. * P<0.05, ** P<0.01, *** P<0.001, **** P<0.0001.
# ImKCs were treated with DPI (500 nM) for 24 hrs and the select metabolites were quantified by LC-MS. Shown are representative data of two independent experiments. P values were calculated by student t-test. * P<0.05, ** P<0.01. n.s. not significant.
# ImKCs were treated with DPI (#81050, Cayman) at 50 or 500 nM for 6 hrs or 24 hrs. Cells were washed once in ice-cold 0.9% NaCl and lysates were extracted in 80% methanol solution containing internal standards for LC/MS by scraping on dry ice followed by 10-minute mixing with vortex in 4° C. Following lysate extraction, debris were removed by high-speed centrifugation and supernatant was dried using speedvac. Samples were analyzed by LC/MS on QExactive Orbitrap instruments (Thermo Scientific) in Whitehead Institute metabolite profiling core facility.
# [9] = tested on: ImKCs (immortalized line of mouse Kupffer cells); assay: Seahorse ECAR/OCR (glycolysis, OxPhos) in ImKCs; assay type: cell-based
# Description: Shown are representative data of three independent experiments. […] Data are presented as the mean±sd (n=4).
# as §1
# Specific parameters for glycolytic capacity and glycolytic reserve were calculated and summarized based on two independent experiments. […] The GFP signal was captured with a TIRF microscope at indicated time points. Shown are representative data of GFP signal at 0 min and 10 min, and the merged signal from three independent experiments.
# OCR and ECAR were measured in isolated tissues or cultured ImKCs using the Seahorse XFe Extracellular Flux Analyzer (Agilent). For tissue respiration assays, 1.0 mg adipose tissue was dissected from inguinal WAT depots by using a surgical biopsy instrument (Integra Miltex Standard Biopsy Punches, Thermo Fisher) and placed into XF96 Islet Capture Microplates and pre-incubated with XF assay medium with pH value at 7.4. XF assay medium supplemented with 1 mM sodium pyruvate, 2 mM GlutaMax™-I, and 25 mM glucose. Isolated MDMs or Kupffer cells were subjected to a mitochondrial stress test by adding oligomycin (2 μM) followed by carbonyl cyanide 4-(trifluoromethoxy), phenylhydrazone (FCCP, 5 μM), and antimycin (1 μM). For glucose stress assay and ECAR measurement, XF assay medium was supplemented only with GlutaMax™-I. Tissue or cells were subjected to a glucose stress test by adding highly concentrated glucose (for tissue, 25 mM; for cells, 10 mM), followed by adding oligomycin (5 μM), FCCP (5 μM), and 2-DG (50 mM). Cells were seeded in culture dishes, and the medium was changed after 6 hours with serum-free DMEM. Cells were incubated for 12-16 hours, and the culture medium was then collected for measurement of glucose and lactate concentrations. Glucose levels were determined using a glucose (GO) assay kit (Sigma). Glucose consumption was the difference in glucose concentration when compared with DMEM. Lactate levels were determined using a lactate assay kit (Eton Bioscience).
# DPI is an agonist of GPR3 and an inhibitor of […] oxidase (NOX). We first determined the requirement of NOX in DPI-stimulated glycolysis.
# To determine the requirement of GPR3, we knocked down GPR3 by siRNA (siGpr3) in ImKCs.
# β-arrestin2, encoded by Arrb2, has been reported to bind to GPR3 and is required for GPR3 signaling. To investigate the requirement of 0-arrestin2 in DPI-stimulated glycolysis, we constructed Arrb2^−/− ImKCs using CRISPR-Cas9 mediated gene editing (FIG. 28F).
# [10] = 5, 50 and 500 nM, short-term, dose-dependent
structure (smiles),measurement,setting,value
c1ccc2c(c1)[I+]c1ccccc1-2 [Diphenyleneiodonium chloride],transcription of genes in the glycolysis pathway,"[1]; 50 nM, 24 hours, RNAseq",stimulates transcription
same,"HK, GAPDH, LDHA and enolase at the protein level","[1]; human primary macrophages, dose- and time-dependent",upregulation
same,translocation of β-arrestin2 from cytosol to the plasma membrane,[2],stimulated translocation
same,blood glucose,15 and 30 min after glucose injection,significantly lower levels
same,blood glucose,6 hours after DPI 2 mg/kg i.p.,significantly lower level
same,"expression of DAM markers APOE, CLEC10A, TREM2 and C1QA",[3],downregulated
same,"expression of genes associated with chemokine-mediated signaling, chemotaxis and inflammatory response",[3],suppressed
same,expression of glycolytic genes,[3],upregulated
same,iWAT,[4],significantly lower level
same,HFD-induced body-weight gain and lipid droplet deposition in the livers,[4]; 2 mg/kg i.p. every 5 days,did not reduce
same,"glucose tolerance, serum AST and ALT levels",[4]; with or without DPI,similar
same,HFD-induced elevation of serum AST and ALT,[5]; HFD 8 weeks,significantly reduced
same,weight gain,"[5]; HFD 8 weeks, 2 mg/kg i.p. every five days, vs vehicle",significantly reduced
same,glucose tolerance,"[5]; HFD 8 weeks, vs vehicle",significant increase
same,lipid deposition in the liver,"[5]; HFD 8 weeks, vs vehicle",significantly reduced
same,iWAT,[5]; after 8 weeks on HFD,significantly lower levels
same,PKM2 enzymatic activity,[6],immediate increase
same,"glycolysis, glycolytic capacity and glucose consumption",[7],did not stimulate any increase
same,glucose level,[8],decreased significantly
same,levels of TCA cycle intermediates,[8],all decreased
same,"levels of glycolysis intermediates (G6P, F1,6BP, G3P, pyruvate, lactate)",[8],increased significantly
same,ECAR,[9]; [10],immediate increase
same,OCR,[9]; [10],concomitant decrease
same,glycolytic capacity and reserve,"[9]; 50 and 500 nM, 24 hrs",significant increase
same,glycolysis and glycolytic capacity,"[9]; Arrb2−/− ImKCs, 50 nM",did not stimulate any increase
same,"glycolysis, glycolytic capacity and glucose consumption","[9]; siGpr3 ImKCs, 50 nM",did not stimulate any increase
same,glycolysis and glycolytic capacity,"[9]; siGpr3 ImKCs, 500 nM, lower than in scramble siRNA ImKCs",significant increase
